Measurements reported in publication PMC6348381, “Discovery of an MLLT1/3 YEATS Domain Chemical Probe” (Angewandte Chemie (International Ed. in English), 2018).

biological target: T1, MLLT3 (Homo sapiens, UniProt P42568); assay: NanoBRET assay, full-length MLLT3-NanoLuc / histone H3.3-HaloTag in HEK293 cells; format: cell-based; conditions: 24 h, in the presence of 2.5 μM SAHA
T1 construct: in full length MLLT3 N-terminal NanoLuc, Histone; host or cells: HEK293
T1 sequence (P42568 1-568): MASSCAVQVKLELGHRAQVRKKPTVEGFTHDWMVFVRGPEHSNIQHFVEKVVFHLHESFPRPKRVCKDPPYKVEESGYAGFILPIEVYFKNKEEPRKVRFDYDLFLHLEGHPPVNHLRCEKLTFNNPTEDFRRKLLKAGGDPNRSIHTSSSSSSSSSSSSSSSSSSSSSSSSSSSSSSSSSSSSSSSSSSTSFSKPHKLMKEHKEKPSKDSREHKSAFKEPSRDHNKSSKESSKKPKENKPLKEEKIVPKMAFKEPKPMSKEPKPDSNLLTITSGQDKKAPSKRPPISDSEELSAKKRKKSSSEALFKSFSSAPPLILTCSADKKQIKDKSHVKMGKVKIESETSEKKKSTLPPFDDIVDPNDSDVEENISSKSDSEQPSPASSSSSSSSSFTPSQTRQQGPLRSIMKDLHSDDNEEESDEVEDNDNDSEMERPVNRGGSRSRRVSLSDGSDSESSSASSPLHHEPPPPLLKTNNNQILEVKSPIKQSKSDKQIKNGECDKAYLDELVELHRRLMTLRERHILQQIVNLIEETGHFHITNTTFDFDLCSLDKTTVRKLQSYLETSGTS
Description: II.V NanoLuciferase Bioluminescent Resonance Energy Transfer (NanoBRET) Assay[2]
HEK293 cells ([…]) were plated in each well of a 6-well plate after 6 h cells were co-transfected with Histone H3.3-HaloTag (NM_002107) and a NanoLuciferase fusion of MLLT1 or MLLT3 (WT sequences from Promega HaloTag® human ORF in pFN21A) at a 1:500 and 1:10 (NanoLuc® to HaloTag®) ratio respectively with FuGENE HD transfection regent. Sixteen hours post-transfection, cells were collected and exchanged into media containing phenol red-free DMEM and 4% FBS in the absence (control sample) or the presence (experimental sample) of 100 nM NanoBRET 618 fluorescent ligand (Promega).
Cell density was adjusted to 2 x 10^5 cells/mL and then seeded 100 µL/well in a white 96-well plate (Corning Costar #3917). Compounds were then added directly to media (in the presence of SAHA 2.5 µM) at final concentrations 0.01-30 μM or an equivalent amount of DMSO as a vehicle control, and the plates were incubated for 24 h at 37 °C in the presence […]
NanoBRET Nano-Glo substrate (Promega) was added to both control and experimental samples at a final concentration of 10 µM. Readings were performed within 5 minutes using a ClarioSTAR (BMG labtech) equipped with LP 480 and 610 nm filters. A corrected BRET ratio was calculated and is defined as the ratio of the emission at 610 nm/[…] for experimental samples minus the emission at 6 10 nm/640 nm for control samples (not incubated with NanoBRET fluorescent ligand). BRET ratios are expressed as milliBRET units (mBU), where 1 mBU corresponds to the corrected BRET ratio multiplied by 1000.
3.3 C-terminal HaloTag in HEK293 cells. Treatment with SAHA (2.5 µM) alone increases MLLT3- […]
dependent manner. Mean±SD of BRET ratio (mBU), n=4 technical replicates.
(also on this page, place not known: 5) -well H3.3 -HaloTag pFN21A ) ( NanoLuc® H aloTag®) post -transfection, red -free Nano -Glo 10 5 6 10 6 10 l igand). cells . […]

SMILES | IC50
C[C@@H]1CCCN1Cc1nc2cc(NC(=O)c3ccc4c(cnn4C)c3)ccc2[nH]1 [Compound 91] | 5800 ± 70 nM

same assay, conditions: 24 h, representative assay

SMILES | MLLT3-Histone 3.3 interaction (mBU)
O=C(CCCCCCC(=O)Nc1ccccc1)NO [SAHA, suberoylanilide hydroxamic acid, reference compound] | increases

biological target: T2, MLLT3 YD (Homo sapiens, UniProt P42568); assay: Isothermal titration calorimetry (ITC), MLLT3 YD; format: binding; conditions: not given
T2 construct: made in house; host or cells: E. coli Rosetta
Description: Supplementary Table 1. AlphaScreen selectivity screen of compound 92 over other acyllysine […]
II.III Isothermal Titration Calorimetry (ITC)
Experiments were carried out on a Nano -ITC Standard Volume Instrument (TA Instruments).
All experiments were carried out at 25 °C in 20 mM HEPES pH 7.5, 150 mM NaCl, 0.5 mM TCEP and 5% glycerol. Protein soluti ons were buffer exchanged by gel filtration. The titrations were conducted using an initial injection of 2 μL followed by 32 injections of 8 μL.
Background dilution heat was subtracted from each experiment. Thermodynamic parameters […]
changes in free energy, enthalpy and entropy respectively. Independent single site binding models were employed in data analysis.
(also on this page, place not known: ac yllysine Nano-ITC -T 1/ KB. ΔH Molar&ratio&[injectant/cell] Time&[s] Corrected&Heat&Rate&[ucal/s] Experiment&1 K Experiment&2 K K)
(§1) (1 picture or pasted object on this page, not shown here)

SMILES | Kd
C[C@@H]1CCCN1Cc1nc2cc(NC(=O)c3ccc4c(cnn4C)c3)ccc2[nH]1 [Compound 91] | 540 nM

biological target: T3, MLLT1 (Homo sapiens, UniProt Q03111); assay: NanoBRET assay, full length MLLT1:Histone 3.3 in HEK293 cells; format: cell-based; conditions: relative to the DMSO control
T3 construct: We also developed a full length MLLT1:Histone 3.3 (H3.3) NanoBRET assay; host or cells: HEK293
T3 sequence (Q03111 whole entry): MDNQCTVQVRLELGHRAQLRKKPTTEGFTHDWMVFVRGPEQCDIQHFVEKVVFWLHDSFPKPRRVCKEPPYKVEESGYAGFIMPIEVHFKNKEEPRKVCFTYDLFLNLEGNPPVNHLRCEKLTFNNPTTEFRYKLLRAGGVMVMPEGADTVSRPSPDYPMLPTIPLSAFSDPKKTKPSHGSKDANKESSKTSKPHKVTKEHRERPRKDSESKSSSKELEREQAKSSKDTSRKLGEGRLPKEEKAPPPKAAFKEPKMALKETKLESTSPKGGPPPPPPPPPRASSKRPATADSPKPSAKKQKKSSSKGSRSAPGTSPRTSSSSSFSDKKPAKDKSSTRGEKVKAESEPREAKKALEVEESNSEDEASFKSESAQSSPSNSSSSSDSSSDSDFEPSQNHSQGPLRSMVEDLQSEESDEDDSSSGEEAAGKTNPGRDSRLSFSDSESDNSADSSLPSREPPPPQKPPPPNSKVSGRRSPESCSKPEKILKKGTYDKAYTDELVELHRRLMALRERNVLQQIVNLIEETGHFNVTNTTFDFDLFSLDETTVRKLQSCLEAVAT
Description: Compounds were then added directly to media (in the presence of SAHA 2.5 M) at final concentrations 0.01-30 μM or an equivalent amount of DMSO as a vehicle control, and the plates were incubated for 24 h at 37 °C in the presence

SMILES | BRET activity (mBU), MLLT1:H3.3 NanoBRET
O=C(CCCCCCC(=O)Nc1ccccc1)NO [SAHA, suberoylanilide hydroxamic acid, reference compound] | significant increase in BRET activity

biological target: T4, endogenous MLLT1 in MV4;11 cells (Homo sapiens, UniProt Q03111); assay: Cellular thermal shift assay (CETSA), MV4;11 cells; format: cell-based; conditions: up to 10 μM
T4 construct: with endogenous MLLT1 in MV4;11 cells; endogenous in cells; host or cells: MV4;11
T4 sequence (Q03111 whole entry): as above
Description: Supplementary Table 2. Thermal stabilisation of compound 1, 92 and Bromosporine with recombinant human bromodomain proteins. *50 µM compound concentration. †10 µM compound […]
II.VIII Cellular Thermal Shift Assay[6]
HEK293 and MV4;11 cells were cultured at 37 °C in a humidified 5% CO2 atmosphere in DMEM Medium containing 10% FBS, respectively. Cells were grown until approximately […]
DMSO final concentrati on) for 30 minutes. Cells were then collected, washed with PBS, transferred in PCR tubes, and pelleted by centrifugation (300 g, 3 min, RT.) The PBS was removed, and the cell pellets heated at the indicated temperature for 3 minutes in a PCR machine (UNO96 , VMR) and then placed on ice. Lysis buffer (50 mM Tris pH 7.5, 0.8% v/v NP-40, 5% v/v glycerol, 1.5 mM MgCl2, 100 mM NaCl, 25 mM NaF, 1mM Na3VO4, 1mM PMSF, 1mM DTT, 10 μg/mL TLCK, 1 μg/mL Leupeptin, 1 μg/mL Aprotinin, 1 μg/mL soy bean trypsin, ≥250 units/ mL Benzonase) was added and the cells lysed by 3 freeze -thaw cycles in liquid nitrogen. Aggregated proteins were removed by centrifugation (17000 g, 20 min, 4 °C) and the protein concentration of the retained soluble fraction determined. 4× sample loading buffer (Bio-Rad) containing 20% v/v DTT was added and samples were heated for 6 min at 90 °C prior to separation by SDS -PAGE. […]

SMILES | thermal stabilisation of MLLT1 (CETSA)
C[C@@H]1CCCN1Cc1nc2cc(NC(=O)c3ccc4c(cnn4C)c3)ccc2[nH]1 [Compound 91] | no thermal stabilisation

biological target: T5, MLLT1 YD (Homo sapiens, UniProt Q03111); assay: AlphaScreen (AS) assay, MLLT1 YEATS domain; format: binding; conditions: not given
T5 construct: made in house; host or cells: E. coli Rosetta
T5 sequence (Q03111 1-138 limits assumed): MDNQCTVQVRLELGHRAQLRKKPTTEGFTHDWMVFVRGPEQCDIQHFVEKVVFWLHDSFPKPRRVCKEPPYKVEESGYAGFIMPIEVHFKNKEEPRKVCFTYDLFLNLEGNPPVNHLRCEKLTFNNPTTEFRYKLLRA
Description: II.IV Protein Expression and Purification
Human bromodomains were cloned, expressed and purified as previously described. The cloning, expression and purification of human YEATS domains are described as follows; Sequences for the wild type YEATS domains of MLLT1, MLLT3, GAS41 and YEATS2 were cloned into expression vectors (Table S1). E. coli Rosetta cells were grown in TB medium at 37°C. Overexpression was induced after five hours by addition of IPTG to a final concentration of 0.4 mM and cells were incubated at 17°C overnight. Cells were harvested by centrifugation and the cell pellet was resuspended in cold binding buffer (50 mM Tris at pH 7.5, 500 mM NaCl, 20 mM imidazole, 2 mM DTT) on a magnetic stirring plate at 4°C. The suspension was lysed using an Avestin EmulsiFlex-C5 homogeniser (1 pass without pressure, four passes with pressure between 1000-1500 bar). The lysate was clarified via centrifugation at 16,000 rpm at 4°C for 1 hour (JLA-16 rotor in Beckmann Coulter Avanti J- […]
The supernatant was loaded onto a standard NiNTA column (HisTrap
FF, 5 ml, GE Healthcare Lifesciences) on an ÄKTAxpress system (GE). After washing with binding buffer, the target protein was eluted at 300 mM imidazole. The eluted peak fractions were pooled and concentrated to 5 ml (Amicon concentrators, 10 kDa molecular weight cut off (MWCO)) and then separated via size exclusion chromatography (buffered with 20 mM Tris at pH 7.5, 500 mM NaCl, 2 mM DTT) using a GE Superdex 75 column on an […]
(NanoDrop ND-1000 Spectrophotometer) and protein identity was verified via SDS-PAGE and LC/MS. Pooled fractions were then again concentrated to at least 2 mg/ml and stored at […]
as §1

SMILES | IC50
O=C(Nc1ccc2[nH]c(CN3CCCCC3)nc2c1)c1ccccc1Cl [Compound 68] | > 20000 nM
COc1ccccc1C(=O)Nc1ccc2[nH]c(CN3CCCCC3)nc2c1 [Compound 69] | > 20000 nM
O=C(Nc1ccc2[nH]c(CN3CCCCC3)nc2c1)c1cccc(OC(F)(F)F)c1 [Compound 70] | > 20000 nM
Cc1ccc(C(=O)Nc2ccc3[nH]c(CN4CCCCC4)nc3c2)cc1C [Compound 72] | 5500 ± 60 nM
COc1ccc(C(=O)Nc2ccc3[nH]c(CN4CCCCC4)nc3c2)cc1 [Compound 74] | 6400 ± 650 nM
O=C(Nc1ccc2[nH]c(CN3CCCCC3)nc2c1)c1ccc(-n2ccnc2)cc1 [Compound 77] | 1000 ± 590 nM
Cn1ncc2cc(C(=O)Nc3ccc4[nH]c(CN5CCCCC5)nc4c3)ccc21 [Compound 79] | 1600 ± 540 nM
C[C@@H]1CCC[C@H](C)N1Cc1nc2cc(NC(=O)c3ccc(Cl)cc3)ccc2[nH]1 [Compound 80] | > 20000 nM
CC(c1nc2cc(NC(=O)c3ccc(Cl)cc3)ccc2[nH]1)N1CCCCC1 (stereo not drawn) [Compound 81] | > 20000 nM
C[C@@H]1C[C@H](C)CN(Cc2nc3cc(NC(=O)c4ccc5c(cnn5C)c4)ccc3[nH]2)C1 [Compound 82] | 5700 ± 2400 nM
CC1CCN(Cc2nc3cc(NC(=O)c4ccccc4)ccc3[nH]2)CC1 [Compound 83] | > 20000 nM
O=C(Nc1ccc2[nH]c(CCN3CCCCC3)nc2c1)c1ccc(Cl)cc1 [Compound 84] | > 20000 nM
CC1CCCN1Cc1nc2cc(NC(=O)c3ccc(Cl)cc3)ccc2[nH]1 (stereo not drawn) [Compound 85] | 330 ± 110 nM
Cn1ncc2cc(C(=O)Nc3ccc4[nH]c(CN5C[C@H]6C[C@H]6C5)nc4c3)ccc21 [Compound 86] | 1400 ± 860 nM
CCC1CCCN1Cc1nc2cc(NC(=O)c3ccc4c(cnn4C)c3)ccc2[nH]1 (stereo not drawn) [Compound 87] | 300 ± 60 nM
COCC1CCCN1Cc1nc2cc(NC(=O)c3ccc4c(cnn4C)c3)ccc2[nH]1 (stereo not drawn) [Compound 88] | 970 ± 470 nM
CC1CCN(Cc2nc3cc(NC(=O)c4ccc5c(cnn5C)c4)ccc3[nH]2)C1 (stereo not drawn) [Compound 89] | 600 ± 460 nM
CC1CCN(Cc2nc3cc(NC(=O)c4ccc5c(cnn5C)c4)ccc3[nH]2)C1 (stereo not drawn) [Compound 90] | 730 ± 590 nM

system: MV4;11 AML cells; assay: qPCR gene expression in MV4;11 cells; format: cell-based, human; conditions: 1 μM, 72 h
Description: II.XII Analysis of gene expression by quantitative polymerase chain reaction (qPCR) […]
MV4;11 cells were cultured at 37 °C in a humidified 5% CO2 atmosphere in RPMI medium containing 10% FBS and 1% L-glutamine. Cells were seeded at a density of 2 x 10^6 cells/well in 6 well plates pre-coated in polyhema, to enable suspension culture. Cells were […]
and washing with PBS, RNA was extracted from cells using RNeasy Mini Kit (Qiagen), following the manufacturer’s protocol. Total RNA was quantified by Nanodrop and 500 ng of RNA was converted to cDNA using GoScript Reverse Transcription System (Promega). The final cDNA products were quantified by QPCR using FAM dye-labelled Taqman primers and probe sets (see table below). Data was analysed using the comparative cycle threshold (CT) method where CT values were normalised by subtracting that from an endogenous housekeeping gene (VIC dye-labelled ACTB). The gene expression levels from compound-treated cells are presented as relative to those of DMSO treated control cells. Statistical analyses were carried out using two-way ANOVA (GraphPad Prism 7).
ACTB (Beta Actin) Endogenous Control 4326315E
Supplementary Table 4. Taqman Gene Expression Assays (Life Technologies). Taqman MGB probes have 5’ FAM reporter dye (or VIC) and 3’ non-fluorescent quencher. […]

SMILES | gene expression of MYC, MPO, DDN, CTSG, CD86 (qPCR)
C[C@@H]1CCCN1Cc1nc2cc(NC(=O)c3ccc4c(cnn4C)c3)ccc2[nH]1 [Compound 91] | diminished cell activity
